Values joined by “and” are separate entries in the source; they are usually repeats but may differ in a detail not shown here. Identical values can stand only once. Inconclusive results are not listed. Active and inactive are the calls of the source.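 Rule for the calls: active = valid dose-response fit whose half-maximal growth-inhibiting concentration is at or below a set limit above the top tested dose; inconclusive = flat fit with effect between 30 and 70%, or poor fit; inactive = half-maximal concentration above a set limit.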
Experiment: antibacterial activity against Clostridioides difficile – 10-point retest, dose response (AID 1259246)
Details: Clostridioides difficile clinical isolate growth, OD600, 24 h; at 120 µM (top of the series)

Row | Structure (SMILES) | activity change, negative = inhibition
1 | CC(C)CC#Cc1ccc2c(c1)O[C@H](CN(C)CC1CCOCC1)[C@H](C)CN([C@H](C)CO)S2(=O)=O | 14.5% (inactive)
2 | C[C@@H]1CN([C@H](C)CO)C(=O)c2cccc(NC(=O)Nc3ccc(C(F)(F)F)cc3)c2O[C@H]1CN(C)Cc1ccncc1 | 56.1% (inactive)
3 | C[C@H]1CCCCO[C@H](CN(C)S(=O)(=O)c2ccc(F)cc2)[C@@H](C)CN([C@@H](C)CO)C(=O)c2cc(NC(=O)Nc3cccc4ccccc34)ccc2O1 | 21.6% (inactive)
4 | C[C@@H]1CN([C@@H](C)CO)C(=O)Cc2cc(N(C)C)ccc2O[C@@H]1CN(C)Cc1ccc(-c2ccccc2)cc1 | 30.2% (inactive)
5 | Cc1ccc(S(=O)(=O)N[C@H]2CC[C@H](CCNC(=O)Cc3ccccn3)O[C@H]2CO)cc1 | -0.997% (inactive)
6 | O=C(C[C@@H]1C[C@@H]2c3cc(NC(=O)C4CCC4)ccc3O[C@@H]2[C@@H](CO)O1)NCc1ccc(Cl)cc1 | -5.46% (inactive)
7 | C[C@@H]1CN([C@H](C)CO)C(=O)c2cc(NC(=O)Nc3ccc4c(c3)OCO4)ccc2O[C@@H](C)CCCCO[C@H]1CN(C)S(=O)(=O)c1ccc(F)cc1 | 13.1% (inactive)
8 | C[C@@H]1CN([C@@H](C)CO)C(=O)c2cccc(NC(=O)Nc3ccc(C(F)(F)F)cc3)c2O[C@H]1CN(C)Cc1ccc(-c2ccccc2)cc1 | 20.3% (inactive)
9 | COc1ccccc1CNC(=O)C[C@H]1C[C@@H]2c3cc(NC(=O)NC4CCCC4)ccc3O[C@@H]2[C@@H](CO)O1 | -0.476% (inactive)
10 | CO[C@@H]1CN(C)C(=O)c2ccc(NC(=O)c3nc4ccccc4s3)cc2OC[C@@H](C)N(Cc2ccncc2)C[C@@H]1C | 14.1% (inactive)
11 | CC(C)CC#Cc1ccc2c(c1)O[C@@H](CN(C)Cc1ccc3c(c1)OCO3)[C@@H](C)CN([C@H](C)CO)S2(=O)=O | 23.6% (inactive)
12 | CNC[C@H]1Oc2c(NC(=O)Nc3ccc4c(c3)OCO4)cccc2C(=O)N([C@@H](C)CO)C[C@H]1C | 4.27% (inactive)
13 | Cc1ccc(S(=O)(=O)N2C[C@@H](O)COC[C@H]3O[C@H](CC(=O)NCc4ccc(Cl)c(Cl)c4)CC[C@@H]32)cc1 | 22.9% (inactive) and 25.2% (inactive) and 97.3% (inactive)
14 | O=S(=O)(Cc1ccccc1)NCC[C@H]1CC[C@H](NS(=O)(=O)c2ccccc2)[C@H](CO)O1 | -7.57% (inactive)
15 | CC(C)CC#Cc1ccc2c(c1)O[C@H](CN(C)Cc1cccnc1)[C@@H](C)CN([C@@H](C)CO)S2(=O)=O | 20.5% (inactive)
16 | Cc1ccc(S(=O)(=O)N[C@@H]2CC[C@@H](CCNS(=O)(=O)Cc3ccccc3)O[C@@H]2CO)cc1 | -1.17% (inactive)
17 | CC(C)C#Cc1ccc2c(c1)O[C@@H](CN(C)Cc1cccnc1)[C@H](C)CN([C@H](C)CO)S2(=O)=O | 27.7% (inactive)
18 | C[C@H](CO)N1C[C@H](C)[C@H](CN(C)Cc2ccc(C(=O)O)cc2)Oc2cc(/C=C/c3ccccc3)ccc2S1(=O)=O | -7.29% (inactive)
19 | COc1ccc(CN(C)C[C@H]2Oc3ccc(NC(=O)C4CC4)cc3CC(=O)N([C@@H](C)CO)C[C@H]2C)cc1 | -3.18% (inactive)

Same assay, conditions: Clostridioides difficile clinical isolate growth, OD600, 24 h; at 135 µM (top of the series)

Row | Structure (SMILES) | activity change, negative = inhibition
20 | C[C@H]1CN([C@@H](C)CO)C(=O)Cc2cc(NC(=O)C3CC3)ccc2O[C@@H]1CN(C)Cc1ccc(-c2ccccc2)cc1 | 17.1% (inactive)
21 | C[C@@H]1CN([C@@H](C)CO)C(=O)Cc2cc(NC(=O)C3CC3)ccc2O[C@@H]1CN(C)Cc1ccccc1 | 0.355% (inactive)
22 | COc1ccc(S(=O)(=O)N(C)C[C@H]2Oc3ccc(NC(=O)C4CC4)cc3CC(=O)N([C@H](C)CO)C[C@H]2C)cc1 | -2.76% (inactive)
23 | O=C(N[C@H]1CC[C@H](CCNS(=O)(=O)Cc2ccccc2)O[C@H]1CO)c1ccc2c(c1)OCO2 | -7.24% (inactive)
24 | O=C(C[C@H]1C[C@@H]2c3cc(NC(=O)C4CCC4)ccc3O[C@@H]2[C@@H](CO)O1)NCc1ccc2c(c1)OCO2 | -9.69% (inactive)
25 | Cc1ccc(S(=O)(=O)N[C@H]2CC[C@H](CCNS(=O)(=O)Cc3ccccc3)O[C@@H]2CO)cc1 | -4.21% (inactive)
26 | Cc1ccc(S(=O)(=O)N[C@H]2CC[C@@H](CCNS(=O)(=O)Cc3ccccc3)O[C@H]2CO)cc1 | 3.07% (inactive)
27 | C[C@@H]1CN([C@@H](C)CO)C(=O)c2cc(NC(=O)Nc3cccc4ccccc34)ccc2O[C@@H](C)CCCCO[C@@H]1CN(C)S(=O)(=O)c1ccc(F)cc1 | 17.6% (inactive)
28 | CO[C@H]1CN(C)C(=O)c2cc(NC(=O)c3nc4ccccc4s3)ccc2OC[C@H](C)N(Cc2ccncc2)C[C@H]1C | 20.9% (inactive)
29 | C[C@@H]1CN([C@H](C)CO)C(=O)c2cc(NC(=O)Nc3cccc4ccccc34)ccc2O[C@@H](C)CCCCO[C@H]1CN(C)C(=O)c1ccccc1 | 14.9% (inactive)

— PubChem BioAssay AID1259246 (Broad Institute, 2017)
